How the values were obtained:
SKCO1 cells = SKCO1 cells viability (CellTiter-Fluor) as readout of proliferation; assay type: cell-based, human; conditions: 5 mM ALA at day 0, no medium refresh
Experimental: (A) Heme content in SHSY5Y cells non-treated (NT) or treated with 5 mM ALA for 15 hours. Values are expressed as pmol heme/mg protein. Data represent mean±SEM, n=3; *=P<0.05. (B, C) qRT-PCR analysis of the expression of ALAS1 (B) and FLVCR1a (C) in SHSY5Y cells non-treated (NT) or treated with 5 mM ALA for 15 hours. Transcript abundance, normalized to beta-actin mRNA expression, is expressed as a fold increase over a calibrator sample. Data represent mean±SEM, n=4. For statistical analyses, an unpaired Student's t-test was used; *p<0.05. (D) qRT-PCR analysis of the expression of ALAS1 in SKCO1 cells untreated (NT) or treated with 5 mM ALA for 24 hours. Transcript abundance, normalized to beta-actin mRNA expression, is expressed as a fold increase over a calibrator sample. Data represent mean±SEM, n=5. […] Band intensities were measured by densitometry and normalized to beta-actin expression. […] (F) Proliferation of SHSY5Y cells assessed by crystal violet staining at different time points (starting from the day after plating, named “day 0”). Treatment with 5 mM ALA occurred at “day 0” and cells were monitored until the end of the experiment without medium refresh. […] (G) SKCO1 cells viability measured by the CellTiter-Fluor Cell Viability Assay (Promega, Madison, WI USA, catalog n°G6080) at different time points, starting from the day after plating (named “day 0”), as a readout of cell proliferation. […]

BTECs = BTECs counting (cell proliferation); assay type: cell-based, human; conditions: FLVCR1a-silenced vs scramble shRNA BTECs, 24, 48 and 72 hours
From the text: (A) BTECs counting, as a readout of cell proliferation, at the indicated time points. […] Data represent mean±SEM, n=4. For statistical analyses, a two-way analysis of variance was used, followed by the Bonferroni correction for multiple group comparisons; ***p<0.001. (B) Quantification of BTECs migration rate in wound-healing assay. […] Data represent mean±SEM, n=32. For statistical analyses, a nonparametric unpaired Mann-Whitney test was used; ***p<0.001. (C) In vitro tubulogenesis assay on matrigel. […] The number of nodes counted within the neo-formed vascular networks is shown. Data represent mean±SEM; n=10. For statistical analyses, a nonparametric unpaired Mann-Whitney test was used; **p<0.01.
For cell counting, 1*10^4 BTECs were seeded in 12-well plates and counted at 24, 48 and 72 hours after plating, as a readout of cell proliferation. Three independent experiments were performed.

Compound: Cl.NCC(=O)CCC(=O)O [5-ALA, 5-Aminolevulinic acid hydrochloride]
- cell proliferation (cell viability) (SKCO1 cells): Reduced proliferation

Compound: FLVCR1a shRNA: shRNA specifically down-regulating FLVCR1a without targeting FLVCR1b; pLKO.1 lentiviral clone TRCN0000059599, antisense SEQ ID No.: 2 (antisense TTGCTAATGATGCTGTACTGG; sense CCAGTACAGCATCATTAGCAA)
- cell proliferation (cell counting) (BTECs): reduced proliferation

Source: US20240285670A1, “THERAPEUTIC TREATMENT OF TUMORS BY BLOCKING THE HEME SYNTHESIS-EXPORT AXIS” (Università degli Studi di Torino, priority 2021, published 2024)
